Our source for the IC50, EC50 and Emax values is US7396834B2, “4(Phenyl-piperazinyl-methyl) benzamide derivatives and their use for the treatment of pain or gastrointestinal disorders” (AstraZeneca AB, priority 2002, dated 2008).

Assay [1] concerns the target T1, cloned human δ receptors (Homo sapiens, UniProt P41143).
T1 construct: expressed in transfected cells; host or cells: human HEK-293S cells, grown in suspension under geneticin selection
The experiment in a line: Human δ receptor radioligand binding assay.

Assay [2] has as its target T1, cloned human δ receptors. The experiment in a line: Human δ receptor GTP[γ]35S functional assay (high expression). Type of assay: biochemical. The procedure: (§1) Human 293S cells expressing cloned human κ, δ and μ receptors and neomycin resistance are grown in suspension at 37° C. and 5% CO2 in shaker flasks containing calcium-free DMEM10% FBS, 5% BCS, 0.1% Pluronic F-68, and 600 μg/ml geneticin.
Cells are pelleted and resuspended in lysis buffer (50 mM Tris, pH 7.0, 2.5 mM EDTA, with PMSF added just prior to use to 0.1 mM from a 0.1 M stock in ethanol), incubated on ice for 15 min, then homogenized with a polytron for 30 sec. The suspension is spun at 1000 g (max) for 10 min at 4° C. The supernatant is saved on ice and the pellets resuspended and spun as before. The supernatants from both spins are combined and spun at 46,000 g(max) for 30 min. The pellets are resuspended in cold Tris buffer (50 mM Tris/Cl, pH 7.0) and spun again. […] The protein concentrations are determined by a modified Lowry assay with sodium dodecyl sulfate.
The agonist activity of the compounds is measured by determining the degree to which the compounds receptor complex activates the binding of GTP to G-proteins to which the receptors are coupled. […] The EC50 and Emax values of compounds are determined from dose-response curves. […] For human δ receptor functional assays, EC50 (low) is measured when the human δ receptors used in the assay were expressed at lower levels in comparison with those used in determining EC50 (high). […]

The next assay addresses cloned human κ receptors (Homo sapiens, UniProt P41145). The experiment in a line: Human κ receptor radioligand binding assay. The note with it: membranes of human 293S cells; Table 1.
A further assay addresses T2, cloned human μ receptors (Homo sapiens, UniProt P35372).
T2 construct: expressed in transfected cells; host or cells: human HEK-293S cells, grown in suspension under geneticin selection
The experiment in a line: Human μ receptor radioligand binding assay.

Assay [3] deals with T3, δ receptors in rat brain membranes (Rattus norvegicus, UniProt P33533).
T3 construct: membranes from HEK-293S cells expressing the cloned human opioid receptors or from homogenised rat and mouse brain; from tissue; host or cells: rat brain homogenate membranes
The experiment in a line: Rat brain GTPγ35S functional assay. Type of assay: biochemical. The procedure: Rat brains are weighed and rinsed in ice-cold PBS (containing 2.5 mM EDTA, pH 7.4). The brains are homogenized with a polytron for 30 sec (rat) in ice-cold lysis buffer (50 mM Tris, pH 7.0, 2.5mM EDTA, with phenylmethylsulfonyl fluoride added just prior use to […] from a 0.5M stock in DMSO:ethanol).
The agonist activity of the compounds is measured by determining the degree to which the compounds receptor complex activates the binding of GTP to G-proteins to which the receptors are coupled. In the GTP binding assay, GTP[γ]^35S is combined with test compounds and membranes from HEK-293S cells expressing the cloned human opioid receptors or from homogenised rat and mouse brain. Agonists stimulate GTP[γ]^35S binding in these membranes. The EC50 and Emax values of compounds are determined from dose-response curves. […] For human δ receptor functional assays, EC50 (low) is measured when the human δ receptors used in the assay were expressed at lower levels in comparison with those used in determining EC50 (high). […]
Rat brain membranes are thawed at 37° C., passed 3 times through a 25-gauge blunt-end needle and diluted in the GTPYS binding (50 mM Hepes, 20 mM NaOH, 100 mM NaCl, 1 mM EDTA, 5 mM MgCl2, pH 7.4, Add fresh: 1 mM DTT, 0.1% BSA). […] The basal and maximal stimulated binding are determined in absence and presence of 3 μM SNC-80.

Assay [4] deals with T1, cloned human δ receptors. The assay is described as follows: Human δ receptor GTP[γ]35S functional assay (low expression). Type of assay: biochemical. Particulars: for Emax: relative to SNC80, lower expression level, range over the listed compounds. The procedure:
as §1
Cells are pelleted and resuspended in lysis buffer (50 mM Tris, pH 7.0, 2.5 mM EDTA, with PMSF added just prior to use to 0.1 mM from a 0.1 M stock in ethanol), incubated on ice for 15 min, then homogenized with a polytron for 30 sec. The suspension is spun at 1000 g (max) for 10 min at 4° C. The supernatant is saved on ice and the pellets resuspended and spun as before. The supernatants from both spins are combined and spun at 46,000 g(max) for 30 min. The pellets are resuspended in cold Tris buffer (50 mM Tris/Cl, pH 7.0) and spun again. The final pellets are resuspended in membrane buffer (50 mM Tris, 0.32 M sucrose, pH 7.0). Aliquots (1 ml) in polypropylene tubes are frozen in dry ice/ethanol and stored at −70° C. until use. The protein concentrations are determined by a modified Lowry assay with sodium dodecyl sulfate.
The agonist activity of the compounds is measured by determining the degree to which the compounds receptor complex activates the binding of GTP to G-proteins to which the receptors are coupled. In the GTP binding assay, GTP[γ]^35S is combined with test compounds and membranes from HEK-293S cells expressing the cloned human opioid receptors or from homogenised rat and mouse brain. Agonists stimulate GTP[γ]^35S binding in these membranes. The EC50 and Emax values of compounds are determined from dose-response curves. Right shifts of the dose response curve by the delta antagonist naltrindole are performed to verify that agonist activity is mediated through delta receptors. For human δ receptor functional assays, EC50 (low) is measured when the human δ receptors used in the assay were expressed at lower levels in comparison with those used in determining EC50 (high). The Emax values were determined in relation to the standard δ agonist SNC80, i.e., higher than 100% is a compound that have better efficacy than SNC80.

Setting [5] is: Human δ IC50, Table 2, range over the listed compounds.
Where [6] appears, read: Human μ IC50, Table 2, range over the listed compounds.

T2 sequence (P35372 whole entry): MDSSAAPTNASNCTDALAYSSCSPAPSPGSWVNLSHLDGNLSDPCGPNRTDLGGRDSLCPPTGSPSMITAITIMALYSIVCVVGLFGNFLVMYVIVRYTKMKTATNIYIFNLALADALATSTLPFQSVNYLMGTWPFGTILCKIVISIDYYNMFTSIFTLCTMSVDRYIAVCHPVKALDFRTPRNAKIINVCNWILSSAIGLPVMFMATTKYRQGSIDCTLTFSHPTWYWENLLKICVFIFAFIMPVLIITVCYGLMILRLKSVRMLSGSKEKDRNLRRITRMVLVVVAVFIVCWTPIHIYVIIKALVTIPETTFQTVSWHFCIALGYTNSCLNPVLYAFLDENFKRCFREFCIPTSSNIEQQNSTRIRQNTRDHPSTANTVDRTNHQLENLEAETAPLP
T1 sequence (P41143 whole entry): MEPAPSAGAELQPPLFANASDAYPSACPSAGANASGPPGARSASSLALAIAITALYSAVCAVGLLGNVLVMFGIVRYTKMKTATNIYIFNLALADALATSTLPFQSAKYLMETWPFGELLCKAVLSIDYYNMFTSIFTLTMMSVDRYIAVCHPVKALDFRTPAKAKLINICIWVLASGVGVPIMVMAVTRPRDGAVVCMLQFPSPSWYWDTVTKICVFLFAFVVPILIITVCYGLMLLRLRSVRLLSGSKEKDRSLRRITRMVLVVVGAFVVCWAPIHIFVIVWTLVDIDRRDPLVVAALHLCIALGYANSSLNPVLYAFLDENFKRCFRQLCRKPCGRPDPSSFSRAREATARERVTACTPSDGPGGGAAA
T3 sequence (P33533 whole entry): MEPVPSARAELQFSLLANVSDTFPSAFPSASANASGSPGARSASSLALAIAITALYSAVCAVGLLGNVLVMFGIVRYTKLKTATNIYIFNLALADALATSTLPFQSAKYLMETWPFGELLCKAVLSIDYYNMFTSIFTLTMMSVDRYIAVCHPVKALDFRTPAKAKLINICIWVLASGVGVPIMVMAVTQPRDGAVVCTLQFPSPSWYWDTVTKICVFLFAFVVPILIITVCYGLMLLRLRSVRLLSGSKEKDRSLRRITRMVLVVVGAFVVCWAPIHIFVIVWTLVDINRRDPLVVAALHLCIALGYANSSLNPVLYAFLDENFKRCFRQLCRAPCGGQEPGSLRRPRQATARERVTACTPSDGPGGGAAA
Chain of cloned human κ receptors (P41145 whole entry): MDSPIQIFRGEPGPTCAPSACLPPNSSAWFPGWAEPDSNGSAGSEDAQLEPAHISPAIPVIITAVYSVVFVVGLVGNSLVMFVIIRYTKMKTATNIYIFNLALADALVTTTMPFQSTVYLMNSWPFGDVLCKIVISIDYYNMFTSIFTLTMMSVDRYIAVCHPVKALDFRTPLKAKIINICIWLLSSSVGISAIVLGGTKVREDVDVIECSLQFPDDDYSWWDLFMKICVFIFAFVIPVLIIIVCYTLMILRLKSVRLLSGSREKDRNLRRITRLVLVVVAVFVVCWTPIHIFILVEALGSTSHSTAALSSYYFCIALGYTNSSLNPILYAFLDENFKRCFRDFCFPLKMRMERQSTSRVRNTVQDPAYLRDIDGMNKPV

A word on the IC50: it is the midpoint of a concentration-inhibition curve. High values mean lower potency, low ones higher potency. One may read the EC50 as the concentration needed to bring the measured effect to its halfway point. A word on the Emax: it is the maximal effect, on the per cent scale that the assay sets. Regarding `CCN(CC)C(=O)c1ccc(C(c2cccc(C(N)=O)c2)N2CCN(Cc3ccccc3)CC2)cc1` (single isomer, unassigned) [Compound 1a, 3-[(4-[(diethylamino)carbonyl]phenyl)(4-benzyl-piperazin-1-yl)methyl]benzamide], the IC50 at cloned human δ receptors [1] (Human δ IC50, membranes of human 293S cells, displacement of radioligand, Table 1) came to 0.26 nM; at cloned human κ receptors, 112 nM; at cloned human μ receptors (Human μ IC50, membranes of human 293S cells, Table 1), 7.7 nM. Also, the EC50 at cloned human δ receptors [2] is 0.29 nM; in assay [3], 0.2 nM. Further, the Emax at cloned human δ receptors [2] (relative to standard δ agonist SNC80, higher expression level) worked out at 101%; in assay [3] (relative to SNC80, rat brain membranes), 170%.
As for `CCN(CC)C(=O)c1ccc(C(c2cccc(C(N)=O)c2)N2CCN(Cc3ccccc3)CC2)cc1` (single isomer, unassigned) [Compound 1b, 3-[(4-[(diethylamino)carbonyl]phenyl)(4-benzyl-piperazin-1-yl)methyl]benzamide], at cloned human δ receptors [1] (setting [5]), the IC50 lay in the range of 0.14 to 3.73 nM. The IC50 at cloned human μ receptors (setting [6]) fell in the range of 45 to 1720 nM. On cloned human δ receptors [4], this compound came in with an EC50 of 0.5 to 83 nM and an Emax of 91 to 104%.
`CCN(CC)C(=O)c1ccc(C(c2cccc(C(N)=O)c2)N2CCN(Cc3ccco3)CC2)cc1` (single isomer, unassigned) [Compound 2a, 3-{(4-[(diethylamino)carbonyl]phenyl)[4-(2-furylmethyl)-piperazin-1-yl]methyl}benzamide] displayed an IC50 at cloned human δ receptors [1] (setting [5]) of 0.14 to 3.73 nM. Further, the IC50 at cloned human μ receptors (setting [6]) lay in the range of 45 to 1720 nM. Further, at cloned human δ receptors [4], the EC50 is 0.5 to 83 nM and the Emax fell in the range of 91 to 104%.
For `CCN(CC)C(=O)c1ccc(C(c2cccc(C(=O)NC)c2)N2CCN(Cc3ccccc3)CC2)cc1` (single isomer, unassigned) [Compound 3a, 3-[[4-[(diethylamino)carbonyl]phenyl][4-(phenylmethyl)-1-piperazinyl]methyl]-N-methyl-benzamide], in that order: 0.14 to 3.73 nM, 45 to 1720 nM, 0.5 to 83 nM and 91 to 104%.
